{"source": "patent US8304202B2", "about": "“Interaction of BIM with TRIM2” (priority 2007, dated 2012)", "key": {"[1]": {"tested_on": "rat cortical neuronal cultures", "test": "Rapid ischemic tolerance: cell death after harmful ischemia (OGD) with preconditioning ischemia, propidium iodide staining", "type": "cell-based", "details": "for rapid ischemic tolerance: neuronal cultures, preconditioning ischemia; for neuroprotective effect of preconditioning: 10 μM, one hour incubation following 30 minutes of preconditioning OGD, cell death 24 hours after 120 minutes of harmful ischemia", "protocol": "(§1) Neurons were exposed to ischemic conditions, namely, oxygen and glucose deprivation (OGD), by washing the cells with phosphate-buffered saline (NaCl ([…]), KCl (2.7 mM), Na2HPO4 (10 mM), KH2PO4 (1.7 mM), pH 7.4) supplemented with 0.5 mM CaCl2, 1.0 mM MgCl2 and placing the cells (in culture dishes) in an anaerobic chamber (85% N2, 5% H2, 10% CO2; 35° C.) for 30 minutes (preconditioning ischemia) or 120 minutes (harmful ischemia).\nCell death was assessed 24 hours following 120 minutes of harmful ischemia using propidium iodide staining. Data shown are mean±S.E. (n=8). Data were analyzed by one-way ANOVA, with Bonferroni's post-hoc test. *, p<0.05.\nCells were incubated for one hour following 30 minutes of preconditioning OGD with either PD98059 or U0126 (both 10 μM), which are compounds that prevent p42/p44 MAPK activation by inhibiting an upstream regulatory MAPK kinase (MEK)."}, "[2]": {"tested_on": "Bim protein", "test": "Bim protein levels by immunoblot following preconditioning ischemia", "type": "cell-based, rat", "details": "for Bim degradation: following preconditioning ischemia", "protocol": "as §1\nBim protein levels were determined by immunoblotting, and then the blots were re-probed with α-tubulin to control for loading.\n(§2) In the top and middle panels of the figure, phosphorylation of p42/p44 MAPK was determined by immunoblot, and the blots were re-probed for total p42/p44 MAPK expression. In the bottom panel of the figure, cells were subjected to preconditioning ischemia and then recovered in the presence of U0126. Bim expression was determined by immunoblot. Data shown are representative of three independent experiments.\nThe effect of U0126 on Bim protein levels also was investigated following 30 minutes of OGD."}, "[3]": {"tested_on": "MCF-7 cells", "test": "Cell death as LDH release (absorbance at 492 nm) in MCF-7 cells", "type": "cell-based", "details": "100 μM U0126", "protocol": "(§3) The stabilization of Bim in cells by blocking Bim degradation may sensitize the cells to an additional anti-cancer agent and promote cell death. […] Cell death was measured as a release of the enzyme lactate dehydrogenase (LDH), which is detected as absorbance at 492 nm.\n(§4) Cells were incubated with various concentrations of doxorubicin (μM) for 72 h, in the absence (solid squares) or presence (open circles) of 100 μM U0126."}, "[4]": {"tested_on": "HCC1419 cells", "test": "Cell death as LDH release (absorbance at 492 nm) in HCC1419 cells", "type": "cell-based", "details": "for EC50: Homo sapiens, LDH release", "protocol": "as §3, §4"}, "[5]": {"tested_on": "Bim", "details": "following preconditioning ischemia", "text": "The experiments described in this example investigate the degradation of the pro-apoptotic Bcl-2 family member Bim as a mechanism of rapid ischemic tolerance."}, "[6]": {"tested_on": "p42/p44 MAPK", "protocol": "as §2\nAs a control, the same blot was probed for non-phospho-p42/p44 MAPK."}, "[7]": {"tested_on": "GST-Bim polypeptide with TRIM2 protein", "details": "cells incubated with inhibitor, preconditioning ischemia", "quoted_text": "To follow up on this observation, co-immunoprecipitation was utilized to determine whether TRIM2 binding to Bim correlates with the degradation of Bim following preconditioning ischemia in neuronal cultures. GST-Bim was incubated with cell lysates from control neurons (“CONT”; open bars) and neurons exposed to preconditioning ischemia (“PC”; hatched bars). GST-Bim interacting with TRIM2 then was co-immunoprecipitated with anti-TRIM 2 antibody and detected by immunoblot with an anti-GST antibody."}}, "note": "Entries after “also recorded” stand apart in the source; their conditions may differ. Read-outs that look alike come from different tables or passages of the source. Residues, ends and D or L forms follow the SMILES beside them. *: point of attachment. Cbz = O=C(OCc1ccccc1)*", "data": [{"smiles": "CC(C)C[C@@H](C=O)NC(=O)[C@H](CC(C)C)NC(=O)[C@H](CC(C)C)NC(=O)OCc1ccccc1", "note": "[MG-132] (Cbz-Leu-Leu-Leu-aldehyde)", "values": [{"measurement": "rapid ischemic tolerance", "setting": "[1]", "result": "blocked rapid ischemic tolerance"}, {"measurement": "Bim degradation", "setting": "[2]", "result": "prevented Bim degradation"}]}, {"smiles": "COc1cccc2c1C(=O)c1c(O)c3c(c(O)c1C2=O)C[C@@](O)(C(=O)CO)C[C@@H]3O[C@H]1C[C@H](N)[C@H](O)[C@H](C)O1", "note": "[doxorubicin]", "values": [{"measurement": "responsiveness to combination of doxorubicin and U0126 relative to doxorubicin alone", "setting": "[3]; MCF-7 cells, 72 h", "result": "no increased responsiveness"}, {"measurement": "shift in the response to doxorubicin when U0126 is present", "setting": "[4]; HCC1419 cells, 72 h, 100 μM U0126", "result": "leftward shift"}, {"measurement": "EC50", "setting": "[4]; HCC1419 cells, 72 h, absence of U0126, read-out: calculated EC50 of doxorubicin alone", "result": 60, "unit": "µM"}, {"measurement": "EC50", "setting": "[4]; HCC1419 cells, 72 h, presence of 100 μM U0126, read-out: calculated EC50 of doxorubicin when combined with U0126", "result": 0.01, "unit": "µM"}]}, {"smiles": "N#CC(=C(/N)Sc1ccccc1N)/C(C#N)=C(\\N)Sc1ccccc1N", "note": "[U0126, 1,4-diamino-2,3-dicyano-1,4-bis(2-aminophenylthio)butadiene]", "values": [{"measurement": "Bim ubiquitination", "setting": "[5]", "result": "reduced"}, {"measurement": "neuroprotective effect of preconditioning", "setting": "[1]", "result": "blocked"}, {"measurement": "rapid ischemic tolerance", "setting": "[1]", "result": "blocked rapid ischemic tolerance; also recorded: blocks"}, {"measurement": "enhancement of doxorubicin-induced cell death", "setting": "[3]; MCF-7 cells (high Bim:TRIM2 ratio)", "result": "not observed"}, {"measurement": "phosphorylation of MAPK in control cells", "setting": "[6]; control cells treated with U0126 alone", "result": "no phosphorylation of MAPK"}, {"measurement": "total levels of p42/p44 MAPK", "setting": "[6]; following preconditioning ischemia or U0126 treatment", "result": "did not change"}, {"measurement": "increase in p42/p44 MAPK phosphorylation following preconditioning ischemia", "setting": "[6]; one hour following preconditioning ischemia", "result": "blocked"}, {"measurement": "enhancement of doxorubicin-induced cell death", "setting": "[4]; HCC1419 cells (low Bim:TRIM2 ratio), 100 μM U0126", "result": "enhancement"}, {"measurement": "cell death (LDH release)", "setting": "[4]; HCC1419 cells, U0126 alone", "result": "does not induce cell death"}, {"measurement": "co-immunoprecipitation of GST-Bim polypeptide with TRIM2 protein", "setting": "[7]", "result": "reduced"}, {"measurement": "Bim protein expression in control-treated cells", "setting": "[2]; control-treated cells, no preconditioning", "result": "no effect"}, {"measurement": "Bim degradation", "setting": "[2]", "result": "reduced; also recorded: blocks"}, {"measurement": "decrease in Bim protein expression at one hour following 30 minutes of preconditioning ischemia", "setting": "[2]; recovery in the presence of U0126", "result": "blocked"}]}, {"smiles": "COc1cccc(-c2cc(=O)c3ccccc3o2)c1N", "note": "[PD98059, 2-(2-Amino-3-methoxyphenyl)-4H-1-benzopyran-4-one]", "values": [{"measurement": "neuroprotective effect of preconditioning", "setting": "[1]", "result": "blocked"}]}]}
